Experimental data taken from patent US6906097B2, “8-azaprostaglandin analogs as agents for lowering intraocular pressure” (Allergan, Inc., priority 2002, dated 2005).

Columns and labels:
[1] = molecular target: T1, hEP3A (Homo sapiens, UniProt P43115); experiment: Functional data, human recombinant EP3A receptor stable transfectants; format: cell-based
T1 construct: expressed in transfected cells
T1 sequence (P43115 1-390): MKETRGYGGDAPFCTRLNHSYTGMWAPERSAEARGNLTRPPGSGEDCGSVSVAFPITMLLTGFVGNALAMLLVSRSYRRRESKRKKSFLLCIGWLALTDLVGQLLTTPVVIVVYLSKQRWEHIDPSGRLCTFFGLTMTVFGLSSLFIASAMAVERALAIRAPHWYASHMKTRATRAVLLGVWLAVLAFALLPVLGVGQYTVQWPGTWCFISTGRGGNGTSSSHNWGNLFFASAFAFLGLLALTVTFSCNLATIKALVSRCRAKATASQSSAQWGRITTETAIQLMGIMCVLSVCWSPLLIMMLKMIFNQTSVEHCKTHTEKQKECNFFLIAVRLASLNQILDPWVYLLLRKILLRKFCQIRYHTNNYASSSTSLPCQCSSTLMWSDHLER
Method: (§1) Human Recombinant EP1, EP2, EP3, EP4, FP, TP, IP and DP Receptors: Stable Transfectants
(§2) Plasmids encoding the human EP1, EP2, EP3, EP4, FP, TP, IP and DP receptors were prepared by cloning the respective coding sequences into the eukaryotic expression vector pCEP4 (Invitrogen). The pCEP4 vector contains an Epstein Barr virus (EBV) origin of replication, which permits episomal replication in primate cell lines expressing EBV nuclear antigen (EBNA-1). It also contains a hygromycin resistance gene that is used for eukaryotic selection. […] HEK-293 cells were grown in DMEM with 10% fetal bovine serum (FBS), 250 μg ml^−1 G418 (Life Technologies) and 200 μg ml^−1 gentamicin or penicillin/streptomycin.
(§3) For transfection, the cells were grown to 50-60% confluency on 10 cm plates. The plasmid pCEP4 incorporating cDNA inserts for the respective human prostanoid receptor (20 μg) was added to 500 μl of 250 mM CaCl2. […] After 30 min, 9 ml DMEM were added to the mixture. The DNA/DMEM/calcium phosphate mixture was then added to the cells, which had been previously rinsed with 10 ml PBS. The cells were then incubated for 5 hr at 37° C. in humidified 95% air/5% CO2. The calcium phosphate solution was then removed and the cells were treated with 10% glycerol in DMEM for 2 min. The glycerol solution was then replaced by DMEM with 10% FBS. The cells were incubated overnight and the medium was replaced by DMEM/10% FBS containing 250 μg ml^−1 G418 and penicillin/streptomycin. The following day hygromycin B was added to a final concentration of 200 μg ml^−1.
(§4) Ten days after transfection, hygromycin B resistant clones were individually selected and transferred to a separate well on a 24 well plate. At confluence each clone was transferred to one well of a 6 well plate, and then expanded in a 10 cm dish. Cells were maintained under continuous hygromycin selection until use.

[2] = molecular target: T2, hEP4 (Homo sapiens, UniProt P35408); experiment: Functional data, human recombinant EP4 receptor stable transfectants; format: cell-based
T2 construct: expressed in transfected cells
T2 sequence (P35408 whole entry): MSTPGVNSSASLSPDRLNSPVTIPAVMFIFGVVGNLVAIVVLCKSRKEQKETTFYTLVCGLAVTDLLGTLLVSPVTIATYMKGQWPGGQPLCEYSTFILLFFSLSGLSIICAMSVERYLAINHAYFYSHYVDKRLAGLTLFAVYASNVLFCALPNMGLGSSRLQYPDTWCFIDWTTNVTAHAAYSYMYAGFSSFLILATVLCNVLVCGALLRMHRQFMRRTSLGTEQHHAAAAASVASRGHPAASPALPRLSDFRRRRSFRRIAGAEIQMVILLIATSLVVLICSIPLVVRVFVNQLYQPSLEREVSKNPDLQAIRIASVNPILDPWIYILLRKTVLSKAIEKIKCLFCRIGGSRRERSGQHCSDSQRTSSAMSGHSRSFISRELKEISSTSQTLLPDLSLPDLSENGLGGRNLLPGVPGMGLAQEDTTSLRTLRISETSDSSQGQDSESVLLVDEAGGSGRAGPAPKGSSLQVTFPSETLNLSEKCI
Method: as §1, §2, §3, §4

[3] = molecular target: T3, hTP (Homo sapiens, UniProt P21731); experiment: Functional data, human recombinant TP receptor stable transfectants; format: cell-based
T3 construct: expressed in transfected cells
T3 sequence (P21731 1-343): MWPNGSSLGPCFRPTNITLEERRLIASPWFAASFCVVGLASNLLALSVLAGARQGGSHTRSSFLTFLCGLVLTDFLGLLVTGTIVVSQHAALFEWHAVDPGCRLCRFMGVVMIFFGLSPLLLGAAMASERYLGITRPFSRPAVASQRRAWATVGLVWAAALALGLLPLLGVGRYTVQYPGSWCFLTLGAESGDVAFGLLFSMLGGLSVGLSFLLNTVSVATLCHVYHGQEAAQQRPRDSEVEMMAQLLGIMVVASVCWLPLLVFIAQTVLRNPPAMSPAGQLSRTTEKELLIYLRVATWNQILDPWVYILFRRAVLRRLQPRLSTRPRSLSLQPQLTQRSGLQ
Method: as §1
(§5) Plasmids encoding the human EP1, EP2, EP3, EP4, FP, TP, IP and DP receptors were prepared by cloning the respective coding sequences into the eukaryotic expression vector pCEP4 (Invitrogen). The pCEP4 vector contains an Epstein Barr virus (EBV) origin of replication, which permits episomal replication in primate cell lines expressing EBV nuclear antigen (EBNA-1). It also contains a hygromycin resistance gene that is used for eukaryotic selection. The cells employed for stable transfection were human embryonic kidney cells (HEK-293) that were transfected with and express the EBNA-1 protein. These HEK-293-EBNA cells (Invitrogen) were grown in medium containing Geneticin (G418) to maintain expression of the EBNA-1 protein. HEK-293 cells were grown in DMEM with 10% fetal bovine serum (FBS), 250 μg ml^−1 G418 (Life Technologies) and 200 μg ml^−1 gentamicin or penicillin/streptomycin.
(§6) For transfection, the cells were grown to 50-60% confluency on 10 cm plates. The plasmid pCEP4 incorporating cDNA inserts for the respective human prostanoid receptor (20 μg) was added to 500 μl of 250 mM CaCl2. HEPES buffered saline×2 (2×HBS, 280 mM NaCl, 20 mM HEPES acid, 1.5 mM Na2 HPO4, pH 7.05-7.12) was then added dropwise to a total of 500 μl, with continuous vortexing at room temperature. After 30 min, 9 ml DMEM were added to the mixture. The DNA/DMEM/calcium phosphate mixture was then added to the cells, which had been previously rinsed with 10 ml PBS. The cells were then incubated for 5 hr at 37° C. in humidified 95% air/5% CO2. The calcium phosphate solution was then removed and the cells were treated with 10% glycerol in DMEM for 2 min. The glycerol solution was then replaced by DMEM with 10% FBS. The cells were incubated overnight and the medium was replaced by DMEM/10% FBS containing 250 μg ml^−1 G418 and penicillin/streptomycin. The following day hygromycin B was added to a final concentration of 200 μg ml^−1.
as §4

[4] = molecular target: T4, hEP3D (Homo sapiens, UniProt P43115); experiment: Radioligand binding, hEP3D; conditions: [3H]PGE2 competition
T4 construct: expressed in transfected cells; host or cells: COS-7, transient transfection, plasma membrane fraction
T4 sequence (P43115 1-374 isoform P43115-4): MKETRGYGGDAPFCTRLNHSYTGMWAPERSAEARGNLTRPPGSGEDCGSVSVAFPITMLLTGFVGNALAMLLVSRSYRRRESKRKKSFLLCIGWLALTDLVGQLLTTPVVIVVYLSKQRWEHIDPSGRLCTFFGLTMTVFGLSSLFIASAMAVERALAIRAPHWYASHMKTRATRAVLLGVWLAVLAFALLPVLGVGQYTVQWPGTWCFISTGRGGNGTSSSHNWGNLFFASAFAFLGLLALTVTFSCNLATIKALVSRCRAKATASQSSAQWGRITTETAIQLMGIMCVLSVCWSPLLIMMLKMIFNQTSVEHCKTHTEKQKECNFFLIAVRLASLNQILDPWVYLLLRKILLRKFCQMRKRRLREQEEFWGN
Method: For radioligand binding on the transient transfectants, plasma membrane fraction preparation was as follows. COS-7 cells were washed with TME buffer, scraped from the bottom of the flasks, and homogenized for 30 sec using a Brinkman PT 10/35 polytron. TME buffer was added to achieve a final 40 ml volume in the centrifuge tubes. The composition of TME is […]; 10N HCl is added to achieve a pH of 7.4.
The cell homogenate was centrifuged at 19000 rpm for 20 min at 4° C. using a Beckman Ti-60 rotor. The resultant pellet was resuspended in TME buffer to give a final 1 mg/ml protein concentration, as determined by Biorad assay. Radioligand binding assays were performed in a 200 μl volume.
The binding of [^3H] PGE2 (specific activity 165 […]) at EP3D, receptors and [^3H]-SQ29548 (specific activity 41.5 Ci mmol^−1) at TP receptors were determined in duplicate in at least three separate experiments. Radiolabeled PGE2 was purchased from Amersham, radiolabeled SQ29548 was purchased from New England Nuclear. […] Competition studies were performed using a final concentration of 2.5 or 5 nM [^3H]-PGE2, or 10 nM [^3H]-SQ 29548 and non-specific binding determined with 10 μM of the respective unlabeled prostanoid. […]

[5] = molecular target: T5, hEP1 (Homo sapiens, UniProt P34995); experiment: Functional data, human recombinant EP1 receptor stable transfectants; format: cell-based
T5 construct: expressed in transfected cells
T5 sequence (P34995 1-402): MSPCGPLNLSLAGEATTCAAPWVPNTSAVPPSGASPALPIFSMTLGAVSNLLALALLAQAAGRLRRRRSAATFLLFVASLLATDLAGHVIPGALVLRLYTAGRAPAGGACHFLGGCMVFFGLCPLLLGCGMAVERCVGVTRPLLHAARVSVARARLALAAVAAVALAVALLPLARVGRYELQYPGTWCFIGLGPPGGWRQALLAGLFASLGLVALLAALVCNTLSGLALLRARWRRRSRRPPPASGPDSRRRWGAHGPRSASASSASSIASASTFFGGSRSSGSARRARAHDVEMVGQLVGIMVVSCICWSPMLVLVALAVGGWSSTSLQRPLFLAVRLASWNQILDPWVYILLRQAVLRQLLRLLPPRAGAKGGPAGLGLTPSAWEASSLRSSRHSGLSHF
Method: as §1, §5, §6, §4

[6] = molecular target: T6, hEP2 (Homo sapiens, UniProt P43116); experiment: Radioligand binding, hEP2; conditions: [3H]PGE2 competition
T6 construct: expressed in transfected cells
T6 sequence (P43116 whole entry): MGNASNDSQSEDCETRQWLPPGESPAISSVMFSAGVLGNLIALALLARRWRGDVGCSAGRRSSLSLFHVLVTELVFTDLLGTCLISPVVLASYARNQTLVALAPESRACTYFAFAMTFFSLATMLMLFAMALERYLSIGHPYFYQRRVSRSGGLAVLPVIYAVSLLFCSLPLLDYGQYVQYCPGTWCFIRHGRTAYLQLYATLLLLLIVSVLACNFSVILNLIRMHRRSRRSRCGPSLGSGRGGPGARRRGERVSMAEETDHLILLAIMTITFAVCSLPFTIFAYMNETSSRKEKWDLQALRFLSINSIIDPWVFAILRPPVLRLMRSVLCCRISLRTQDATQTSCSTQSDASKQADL
Method: as §1
as §5, with “HEK-293 cells were grown in DMEM with 10% fetal bovine serum (FBS), 250 μg ml^−1 G418 (Life Technologies) and 200 μg ml^−1 gentamicin or penicillin/streptomycin.” left out
Radioligand binding studies on plasma membrane fractions prepared for cells stably transfected with the cat or human receptor were performed as follows. […] The pellet was then resuspended in TME buffer to provide a final protein concentration of 1 mg/ml, as determined by Bio-Rad assay. […]
The binding of [^3H](N) PGE2 (specific activity 165 Ci/mmol) was determined in duplicate and in at least 3 separate experiments. […] Competition studies were performed using a final concentration of 2.5 or 5 nM [^3H](N) PGE2 and non-specific binding was determined with 10^−5 M unlabelled PGE2.

[7] = molecular target: T2, hEP4; experiment: Radioligand binding, hEP4; conditions: [3H]PGE2 competition
Method: as §1, §2, §3, §4
Radioligand binding studies on plasma membrane fractions prepared for cells stably transfected with the cat or human receptor were performed as follows. Cells washed with TME buffer were scraped from the bottom of the flasks and homogenized for 30 sec using a Brinkman PT 10/35 polytron. TME buffer was added as necessary to achieve a 40 ml volume in the centrifuge tubes. TME is comprised of 50 mM TRIS base, 10 mM MgCl2, 1 mM EDTA; pH 7.4 is achieved by adding 1 N HCl. The cell homogenate was centrifuged at 19,000 rpm for 20-25 min at 4° C. using a Beckman Ti-60 or Ti-70 rotor. The pellet was then resuspended in TME buffer to provide a final protein concentration of 1 mg/ml, as determined by Bio-Rad assay. Radioligand binding assays were performed in a 100 μl or 200 μl volume.
The binding of [^3H](N) PGE2 (specific activity 165 Ci/mmol) was determined in duplicate and in at least 3 separate experiments. Incubations were for 60 min at 25° C. and were terminated by the addition of 4 ml of ice-cold 50 mM TRIS-HCl followed by rapid filtration through Whatman GF/B filters and three additional 4 ml washes in a cell harvester (Brandel). Competition studies were performed using a final concentration of 2.5 or 5 nM [^3H](N) PGE2 and non-specific binding was determined with 10^−5 M unlabelled PGE2.

[8] = molecular target: T7, hIP (Homo sapiens, UniProt P43119); experiment: Functional data, human recombinant IP receptor stable transfectants; format: cell-based
T7 construct: expressed in transfected cells
T7 sequence (P43119 whole entry): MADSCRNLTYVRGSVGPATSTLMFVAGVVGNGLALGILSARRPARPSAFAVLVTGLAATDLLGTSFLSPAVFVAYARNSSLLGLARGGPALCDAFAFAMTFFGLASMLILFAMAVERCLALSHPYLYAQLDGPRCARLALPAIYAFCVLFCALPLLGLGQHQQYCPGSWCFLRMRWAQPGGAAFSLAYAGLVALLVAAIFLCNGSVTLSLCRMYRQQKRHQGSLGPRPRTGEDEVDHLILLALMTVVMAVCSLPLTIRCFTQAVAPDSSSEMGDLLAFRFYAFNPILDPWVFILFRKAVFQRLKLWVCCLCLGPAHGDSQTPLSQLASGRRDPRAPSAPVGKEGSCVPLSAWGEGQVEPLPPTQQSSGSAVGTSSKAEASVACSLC
Method: as §1, §5
For transfection, the cells were grown to 50-60% confluency on 10 cm plates. The plasmid pCEP4 incorporating cDNA inserts for the respective human prostanoid receptor (20 μg) was added to 500 μl of 250 mM CaCl2. HEPES buffered saline×2 (2×HBS, 280 mM NaCl, 20 mM HEPES acid, 1.5 mM Na2 HPO4, pH 7.05-7.12) was then added dropwise to a total of 500 μl, with continuous vortexing at room temperature. […]

Structure (SMILES) | hEP3A functional EC50 [1] | EC50 [2] [nM] | EC50 [3] [nM] | IC50 [4] [nM] | hEP1 functional EC50 [5] | EC50 [1] [nM] | IC50 [6] [nM] | IC50 [7] [nM] | EC50 [8] [nM] | EC50 [5] [nM]
O=C(O)CCCCCCN1C(=O)CC[C@@H]1CCC(=O)Cc1cccc(C(F)(F)F)c1 [Example 7, 7-[2S-[3-Oxo-4-(trifluormethylphenyl)-butyl]-5-oxo-pyrrolidin-1-yl]-heptanoic acid] | hit | 551 | > 10000 |  |  |  |  | 2200 |  | > 10000
O=C(O)CCCCCCN1C(=O)CC[C@@H]1/C=C/C(=O)Cc1cccc(C(F)(F)F)c1 [Example 7a, 7-[2S-[3-Oxo-4-(trifluormethylphenyl)-but-1-enyl]-5-oxo-pyrrolidin-1-yl]-heptanoic acid] | hit | 86 |  |  |  |  | > 10000 | 500 |  | > 10000
O=C(O)CCCCCCN1C(=O)CC[C@@H]1/C=C/C(=O)Cc1cccc(Cl)c1 [Example 3a, 7-[2S-[4-(3-Chloro-phenyl)-3-oxo-but-1-enyl]-5-oxo-pyrrolidin-1-yl]-heptanoic acid] |  | 54 | > 10000 |  | hit | 324 |  | 300 |  | 

Now those with a lower EC50 [2], led by results:

hEP3A functional EC50 [1] | EC50 [2] [nM] | EC50 [3] [nM] | IC50 [4] [nM] | hEP1 functional EC50 [5] | EC50 [1] [nM] | IC50 [6] [nM] | IC50 [7] [nM] | EC50 [8] [nM] | Structure (SMILES) | EC50 [5] [nM]
hit | 29 | > 10000 | 300 |  |  |  |  |  | O=C(O)CCCCCCN1C(=O)CC[C@@H]1/C=C/C(=O)Cc1ccccc1 [Example 11a, 7-[2S-[3-Oxo-4-(phenyl)-but-1-enyl]-5-oxo-pyrrolidin-1-yl]-heptanoic acid] | 
 | 26 |  |  |  | > 10000 |  | 200 | > 10000 | CCOC(=O)CCCCCCN1C(=O)CC[C@@H]1/C=C/C(O)Cc1cccc(C(F)(F)F)c1 (stereo partly drawn) [Example 6a, 7-[2S-[3R-Hydroxy-4-(3-trifluoromethyl-phenyl)-but-1-enyl]-5-oxo-pyrrolidin-1-yl]-heptanoic acid, ethyl ester] | 
 | 0.02 | > 10000 |  | hit | 324 | > 10000 | 0.4 |  | O=C(O)CCCCCCN1C(=O)CC[C@@H]1/C=C/C(O)Cc1cccc(Cl)c1 (stereo partly drawn) [Example 1a, 7-[2S-[3R-Hydroxy-4-(chloro-phenyl)-but-1-enyl]-5-oxo-pyrrolidin-1-yl]-heptanoic acid] | 
